# Measured values: PubChem BioAssay (NCI)
#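 Compound exposure: 48 hours, 5 concentrations, 96-well plates. At the TGI there is no net growth.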
# Experiments:
# Assay in all cases: DTP human tumour cell line panel, 48 h
# HCT-15 colon = tested on: HCT-15 colon
# U251 CNS = tested on: U251 CNS
# SNB-19 CNS = tested on: SNB-19 CNS
# COLO 205 colon = tested on: COLO 205 colon
# OVCAR-3 ovarian = tested on: OVCAR-3 ovarian
# T-47D breast = tested on: T-47D breast
# TK-10 renal = tested on: TK-10 renal
# LOX IMVI melanoma = tested on: LOX IMVI melanoma
# SW-620 colon = tested on: SW-620 colon
# ACHN renal = tested on: ACHN renal
# MALME-3M melanoma = tested on: MALME-3M melanoma
# SF-295 CNS = tested on: SF-295 CNS
# MCF7 breast = tested on: MCF7 breast
# 786-0 renal = tested on: 786-0 renal
# UO-31 renal = tested on: UO-31 renal
# UACC-62 melanoma = tested on: UACC-62 melanoma
# IGROV1 ovarian = tested on: IGROV1 ovarian
# SF-268 CNS = tested on: SF-268 CNS
# MDA-N = tested on: MDA-N
# OVCAR-4 ovarian = tested on: OVCAR-4 ovarian
# SF-539 CNS = tested on: SF-539 CNS
# A498 renal = tested on: A498 renal
# BT-549 breast = tested on: BT-549 breast
# KM12 colon = tested on: KM12 colon
# HL-60(TB) leukemia = tested on: HL-60(TB) leukemia
# HOP-92 NSCLC = tested on: HOP-92 NSCLC
# MDA-MB-435 = tested on: MDA-MB-435
# HOP-62 NSCLC = tested on: HOP-62 NSCLC
# SK-OV-3 ovarian = tested on: SK-OV-3 ovarian
# HCC-2998 colon = tested on: HCC-2998 colon
# SK-MEL-28 melanoma = tested on: SK-MEL-28 melanoma
# M14 melanoma = tested on: M14 melanoma
# SK-MEL-5 melanoma = tested on: SK-MEL-5 melanoma
# MOLT-4 leukemia = tested on: MOLT-4 leukemia
# HCT-116 colon = tested on: HCT-116 colon
# NCI-H460 lung = tested on: NCI-H460 lung
# SNB-75 CNS = tested on: SNB-75 CNS
# NCI/ADR-RES ovarian = tested on: NCI/ADR-RES ovarian
# NCI-H23 lung = tested on: NCI-H23 lung
# CCRF-CEM leukemia = tested on: CCRF-CEM leukemia
# DU-145 prostate = tested on: DU-145 prostate
# OVCAR-5 ovarian = tested on: OVCAR-5 ovarian
# K-562 leukemia = tested on: K-562 leukemia
# MDA-MB-231 breast = tested on: MDA-MB-231 breast
# HS 578T breast = tested on: HS 578T breast
# HT29 colon = tested on: HT29 colon
# RXF 393 renal = tested on: RXF 393 renal
# A549 NSCLC = tested on: A549 NSCLC
# OVCAR-8 ovarian = tested on: OVCAR-8 ovarian
# SK-MEL-2 melanoma = tested on: SK-MEL-2 melanoma
# PC-3 prostate = tested on: PC-3 prostate
# NCI-H226 lung = tested on: NCI-H226 lung
# EKVX NSCLC = tested on: EKVX NSCLC
# UACC-257 melanoma = tested on: UACC-257 melanoma
# CAKI-1 renal = tested on: CAKI-1 renal
# NCI-H522 lung = tested on: NCI-H522 lung
# SN12C renal = tested on: SN12C renal
# RPMI-8226 leukemia = tested on: RPMI-8226 leukemia
smiles,measurement,setting,value
COc1cc2oc(-c3ccc4c(c3)OCO4)c(OC)c(=O)c2c(OC)c1OC,TGI,HCT-15 colon,> 100 µM
same,TGI,U251 CNS,> 100 µM
same,TGI,SNB-19 CNS,> 100 µM
same,TGI,COLO 205 colon,> 100 µM
same,TGI,OVCAR-3 ovarian,> 100 µM
same,TGI,T-47D breast,> 100 µM
same,TGI,TK-10 renal,> 100 µM
same,TGI,LOX IMVI melanoma,> 100 µM
same,TGI,SW-620 colon,> 100 µM
same,TGI,ACHN renal,> 100 µM
same,TGI,MALME-3M melanoma,> 100 µM
same,TGI,SF-295 CNS,> 100 µM
same,TGI,MCF7 breast,> 100 µM
same,TGI,786-0 renal,> 100 µM
same,TGI,UO-31 renal,> 100 µM
same,TGI,UACC-62 melanoma,> 100 µM
same,TGI,IGROV1 ovarian,> 100 µM
same,TGI,SF-268 CNS,99.5 µM
same,TGI,MDA-N,> 100 µM
same,TGI,OVCAR-4 ovarian,> 100 µM
same,TGI,SF-539 CNS,> 100 µM
same,TGI,A498 renal,> 100 µM
same,TGI,BT-549 breast,> 100 µM
same,TGI,KM12 colon,> 100 µM
same,TGI,HL-60(TB) leukemia,> 100 µM
same,TGI,HOP-92 NSCLC,39.8 µM
same,TGI,MDA-MB-435,> 100 µM
same,TGI,HOP-62 NSCLC,93 µM
same,TGI,SK-OV-3 ovarian,> 100 µM
same,TGI,HCC-2998 colon,> 100 µM
same,TGI,SK-MEL-28 melanoma,> 100 µM
same,TGI,M14 melanoma,> 100 µM
same,TGI,SK-MEL-5 melanoma,> 100 µM
same,TGI,MOLT-4 leukemia,> 100 µM
same,TGI,HCT-116 colon,> 100 µM
same,TGI,NCI-H460 lung,> 100 µM
same,TGI,SNB-75 CNS,94 µM
same,TGI,NCI/ADR-RES ovarian,> 100 µM
same,TGI,NCI-H23 lung,> 100 µM
same,TGI,CCRF-CEM leukemia,> 100 µM
same,TGI,DU-145 prostate,> 100 µM
same,TGI,OVCAR-5 ovarian,> 100 µM
same,TGI,K-562 leukemia,> 100 µM
same,TGI,MDA-MB-231 breast,> 100 µM
same,TGI,HS 578T breast,> 100 µM
same,TGI,HT29 colon,> 100 µM
same,TGI,RXF 393 renal,> 100 µM
same,TGI,A549 NSCLC,> 100 µM
same,TGI,OVCAR-8 ovarian,> 100 µM
same,TGI,SK-MEL-2 melanoma,> 100 µM
same,TGI,PC-3 prostate,> 100 µM
same,TGI,NCI-H226 lung,> 100 µM
same,TGI,EKVX NSCLC,> 100 µM
same,TGI,UACC-257 melanoma,> 100 µM
same,TGI,CAKI-1 renal,> 100 µM
same,TGI,NCI-H522 lung,> 100 µM
same,TGI,SN12C renal,> 100 µM
CC(C)(C)c1ccc2c(c1)C(=O)c1ccccc1C2=O,TGI,HCT-15 colon,> 100 µM
same,TGI,U251 CNS,> 100 µM
same,TGI,SNB-19 CNS,> 100 µM
same,TGI,COLO 205 colon,60.3 µM
same,TGI,OVCAR-3 ovarian,> 100 µM
same,TGI,T-47D breast,> 100 µM
same,TGI,TK-10 renal,> 100 µM
same,TGI,LOX IMVI melanoma,> 100 µM
same,TGI,SW-620 colon,> 100 µM
same,TGI,ACHN renal,> 100 µM
same,TGI,MALME-3M melanoma,> 100 µM
same,TGI,SF-295 CNS,> 100 µM
same,TGI,MCF7 breast,66.3 µM
same,TGI,786-0 renal,> 100 µM
same,TGI,UO-31 renal,> 100 µM
same,TGI,UACC-62 melanoma,> 100 µM
same,TGI,IGROV1 ovarian,> 100 µM
same,TGI,SF-268 CNS,> 100 µM
same,TGI,MDA-N,> 100 µM
same,TGI,OVCAR-4 ovarian,> 100 µM
same,TGI,SF-539 CNS,> 100 µM
same,TGI,A498 renal,> 100 µM
same,TGI,BT-549 breast,> 100 µM
same,TGI,KM12 colon,> 100 µM
same,TGI,HL-60(TB) leukemia,> 100 µM
same,TGI,HOP-92 NSCLC,85 µM
same,TGI,MDA-MB-435,> 100 µM
same,TGI,HOP-62 NSCLC,> 100 µM
same,TGI,SK-OV-3 ovarian,> 100 µM
same,TGI,SK-MEL-28 melanoma,> 100 µM
same,TGI,RPMI-8226 leukemia,> 100 µM
same,TGI,M14 melanoma,> 100 µM
same,TGI,SK-MEL-5 melanoma,40.2 µM
same,TGI,MOLT-4 leukemia,65.8 µM
same,TGI,HCT-116 colon,> 100 µM
same,TGI,NCI-H460 lung,> 100 µM
same,TGI,SNB-75 CNS,87 µM
same,TGI,NCI/ADR-RES ovarian,> 100 µM
same,TGI,NCI-H23 lung,> 100 µM
same,TGI,CCRF-CEM leukemia,> 100 µM
same,TGI,DU-145 prostate,> 100 µM
same,TGI,OVCAR-5 ovarian,> 100 µM
same,TGI,K-562 leukemia,> 100 µM
same,TGI,MDA-MB-231 breast,> 100 µM
same,TGI,HS 578T breast,> 100 µM
same,TGI,HT29 colon,68.8 µM
same,TGI,RXF 393 renal,80 µM
same,TGI,A549 NSCLC,> 100 µM
same,TGI,OVCAR-8 ovarian,> 100 µM
same,TGI,PC-3 prostate,> 100 µM
same,TGI,NCI-H226 lung,92.6 µM
same,TGI,EKVX NSCLC,75.9 µM
same,TGI,UACC-257 melanoma,> 100 µM
same,TGI,CAKI-1 renal,> 100 µM
same,TGI,SN12C renal,> 100 µM
